Consider four compounds from patent US12595269B2, “Morpholine-like monoamine releasers” (Solvonis Therapeutics Ireland Holdings Limited, priority 2022, dated 2026).

What is called fraction unbound is free concentration divided by total concentration. High values mean much free substance, low ones little free substance.

Read-outs that look alike come from different tables or passages of the source.

The target of data set [1] is T1, SERT (serotonin release) (Rattus norvegicus, UniProt P31652).
T1 construct: from tissue; host or cells: rat frontal cortex, crude synaptosomes
T1 sequence (P31652 whole entry): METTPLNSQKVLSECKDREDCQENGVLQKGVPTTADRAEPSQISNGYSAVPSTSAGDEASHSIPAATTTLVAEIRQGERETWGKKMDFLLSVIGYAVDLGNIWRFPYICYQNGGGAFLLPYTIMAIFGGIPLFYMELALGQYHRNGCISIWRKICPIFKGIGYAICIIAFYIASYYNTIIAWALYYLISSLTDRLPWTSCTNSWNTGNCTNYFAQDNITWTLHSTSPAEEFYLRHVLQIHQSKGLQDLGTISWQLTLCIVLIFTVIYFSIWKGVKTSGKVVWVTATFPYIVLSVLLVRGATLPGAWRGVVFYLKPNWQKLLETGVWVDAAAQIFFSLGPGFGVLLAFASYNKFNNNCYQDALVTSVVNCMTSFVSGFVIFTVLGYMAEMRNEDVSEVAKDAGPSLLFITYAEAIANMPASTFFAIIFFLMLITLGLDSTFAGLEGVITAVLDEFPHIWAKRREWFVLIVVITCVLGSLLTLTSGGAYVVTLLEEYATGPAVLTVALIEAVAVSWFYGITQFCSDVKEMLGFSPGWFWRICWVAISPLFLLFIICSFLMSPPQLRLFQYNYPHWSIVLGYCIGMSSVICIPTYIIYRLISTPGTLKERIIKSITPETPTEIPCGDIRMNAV
The experiment in a line: Serotonin release filtration assay in rat cortex synaptosomes. The format is cell-based. How it is done: Methods and Procedure—Release: The potency of the disclosed compounds for stimulating dopamine (DA) release was measured by an endpoint release filtration assay in a 96-well format using rat synaptosomes, essentially as described by Sandtner et al., Mol. Pharmacol., 2016; 89(1):165-75, and Baumann et al., Neuropsychopharmacol., 2013; 38:552-562, with some variations.
One male rat was sacrificed and striatum/cortex regions were dissected over ice. The striatum portions were weighed and put in a glass tube for homogenization, containing ice-cold 0.32 M sucrose (dilution 1:24 w/v), while the frontal cortex tissue was diluted in ice-cold 0.32 M sucrose, 1:20 w/v. Tissues were homogenized and centrifuged for 10 mins at 1000×g. The two supernatants from striatum and cortex (crude synaptosomes) were retained on ice until use.
Test compounds were then serially diluted 1:4 in neat DMSO as concentration-response curves (CRC) of 11 points. To each well of a 2-mL 96 deep-well plate (Whatman UNIPLATE 96 well) were added: 2 μL of CRC of test compounds or 2 μL of DMSO (no-release condition) or 2 μL of MDMA 10 mM solution (final 50 μM, for maximal release), followed by 200 μL/well of complete Krebs-phosphate buffer (126 mM NaCl, 2.4 mM KCl, 0.83 mM CaCl2, 0.8 mM MgCl2, 0.5 mM KH2PO4, 0.5 mM Na2SO4, 11.1 mM Glucose, 0.05 mM pargyline, 1 mg/mL ascorbic acid, freshly added, pH 7.4), containing 1 μM reserpine to block vesicular uptake of substrate. Desipramine (100 nM) and citalopram (100 nM) were also added to the release assay buffer in order to inhibit NET and SERT uptake, respectively. The final compound dilution, then, was 1:200 in 0.5% DMSO.
The raw data (cpm) from residual radioactivity onto the filter were elaborated for the determination of pEC50/EC50 values. Specifically, the compound effect was expressed as the percent of maximal release obtained with 50 μM MDMA (100% release) in comparison to vehicle (0.5% DMSO, 0% release). Both MDMA and D-amphetamine in CRC were used as internal controls in each release experiment. In each plate, for both 0% and 100% of release, the signal window is monitored performing Z′ calculations using raw data of four replicates.
Synaptosomes were then loaded with ^3H-5HT for 60 minutes at RT. After dispensing loaded synaptosomes onto a compound plate (200 μL/well), the release reaction proceeded for an additional 15 minutes. Stop by filtration, counting, and data elaboration were performed as described for DA release.

Data set [2] can be described thus: Plasma protein binding by equilibrium dialysis, human plasma. In kind it is in vitro ADME. The following applies: pH 7.4. How it is done: Methods and Procedure: This study was performed in agreement with the previously described procedures to assure data integrity and adherence to GLP standards. Plasma protein binding and blood tissue binding of test items (0.5 μM) was determined using biological samples from male Sprague Dawley (SD) rats and humans. […] Dexamethasone was used as a control for lung tissue binding. Various biological samples were spiked with test compounds according to the methods that follow.
Preparation of plasma or blood samples: An appropriate amount of test compound was dissolved in DMSO to yield a 10 mM solution. Further dilutions, to obtain 50 μM working solutions (WS), were then prepared using 50% acetonitrile in Milli-Q water. These 100×WS were used to spike plasma or blood to obtain a final concentration of 0.5 μM. From this initial spiking solution, control samples (n=3), referred to as T=0, were immediately extracted and used to calculate the recovery of the test item.
An equilibrium dialysis method was performed to determine protein binding in the various biological samples described herein. Materials were prepared and methods were in accordance with the following procedures. […]
Dialysis buffer was prepared by dissolving Na2HPO4 8.69 g, KH2PO4 1.90 g, and NaCl 4.11 g in 1 L of MilliQ water, and adjusting the pH to 7.4 with H3PO4. […] In order to control the integrity of the membrane after the dialysis process, the presence of protein was assessed in the buffer compartment. […]
Samples were analyzed in a LC-MS/MS system using an analytical method to monitor the compound to internal standard peak area ratios as representative of the compound concentrations. Alternatively, samples were analyzed by RapidFire.
Protein binding in plasma, blood, brain, and lung tissue samples were determined with the following formula: Afu=Buffer/x, wherein “x” may be plasma, blood, brain, or lung, and “Afu” is the apparent fraction unbound, and the other variables refer to the analyte/internal standard ratio determined in their specific compartment (buffer, plasma, blood, brain homogenate, and lung homogenate); […]

Data set [3] has as its target T2, human 5-HT2A receptor (Homo sapiens, UniProt P28223).
T2 construct: expressed in transfected cells; host or cells: CHO
The experiment in a line: Intracellular calcium response (FLIPR) in CHO cells expressing human 5-HT2A receptor, agonist and antagonist modes. In kind it is cell-based. Background: Calcium flux is commonly read through the fluorescence of an indicator in the cells.
Protocol: Methods and Procedure: Selectivity for the 5-HT2A receptor was assessed by measuring [Ca^2+]; in a CHO recombinant cell line stably expressing the human 5-HT2A receptor, using Fluorometric Imaging Plate Reader (FLIPR TETRA, Molecular Devices).
The day before the experiment, CHO cells were seeded into clear-bottom 384-well plates at a density of 10,000 cells per well, in F-12K Medium (ThermoFisher #21127) supplemented with 10% dialyzed fetal bovine serum, and grown overnight at 37° C., 5% CO2.
On the day of the experiment, the medium was replaced with assay buffer (20 mM HEPES, 145 mM NaCl, 5 mM KCl, 5.5 mM glucose, 1 mM MgCl2, 2 mM CaCl2 and 2.5 mM probenecid, pH 7.4) containing the cytoplasmic Ca^2+ indicator Fluo-4 AM at 2 μM and 0.02% Pluronic F-127. After an incubation of 45-60 minutes at 37° C., 0% CO2, cells were washed by Microplate Washer (BIOTEK) 384 with assay buffer, and the plate was transferred in the FLIPR TETRA. Then, intracellular fluorescence was measured in real time by FLIPR TETRA (excitation wavelength at 470-495 nm, emission wavelength at 515-575 nm), using a dual addition protocol.
In the first addition, test compounds (11 points of 1:4 serial dilution, 0.5% DMSO final) were added to the cell plate to evaluate their effect on intracellular calcium levels. In the event of a response, the signal was elaborated for the determination of pEC50/EC50 values. […] Inhibition of 5-HT response vs. vehicle effect (0.5% DMSO) was elaborated for the determination of pIC50/IC50 values. […] A CRC of ketanserin was used as the internal antagonist control.

Where [4] appears, read: rat cortex synaptosomes, % of release by 50 μM MDMA, read-out: SERT release pEC50 (converted).

T2 sequence (P28223 whole entry): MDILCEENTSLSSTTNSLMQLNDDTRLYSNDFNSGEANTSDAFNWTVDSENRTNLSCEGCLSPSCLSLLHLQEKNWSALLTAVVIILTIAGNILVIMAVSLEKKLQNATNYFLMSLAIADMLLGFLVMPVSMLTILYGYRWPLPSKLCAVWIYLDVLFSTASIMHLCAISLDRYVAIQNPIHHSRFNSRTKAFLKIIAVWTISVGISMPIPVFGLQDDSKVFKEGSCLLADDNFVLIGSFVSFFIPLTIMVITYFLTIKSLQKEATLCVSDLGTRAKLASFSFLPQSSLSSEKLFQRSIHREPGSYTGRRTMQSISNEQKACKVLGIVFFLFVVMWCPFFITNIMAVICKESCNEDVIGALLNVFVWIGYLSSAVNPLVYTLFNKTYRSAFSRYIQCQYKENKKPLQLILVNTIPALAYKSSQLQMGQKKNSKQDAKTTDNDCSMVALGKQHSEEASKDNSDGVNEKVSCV

Regarding `Clc1ccc([C@@]23CN[C@@H](CO2)C3)cc1Cl` (single isomer, unassigned) [518A], the EC50 in data set [1] (setting [4]) is 17 nM. The fraction unbound at 5 h, 0.5 µM in data set [2] was found to be 0.0143.
Regarding `Clc1ccc(C23CNC(CO2)C3)cc1Cl` (centres unmarked) [522A, 1-(3,4-dichlorophenyl)-2-oxa-5-azabicyclo[2.2.1]heptane], the EC50 in data set [3] (agonist mode, CHO cells, calcium response, read-out: 5-HT2A agonist selectivity (pEC50) (converted)) is 50100 nM; in data set [3] (antagonist mode, versus serotonin EC80, read-out: 5-HT2A antagonist selectivity (represented as pEC50) (converted)) it was 3980 nM; in data set [1] (setting [4]), 19.1 nM; in data set [1] (serotonin release, read-out: EC50 to influence SER release), 22 nM. Further, in data set [2], the fraction unbound at 5 h, 0.5 µM worked out at 0.021.
As to `Clc1ccc([C@]23CN[C@H](CO2)C3)cc1Cl` (single isomer, unassigned) [516A], the EC50 in data set [1] (setting [4]) is 18.2 nM.
As to `CNC(C)Cc1ccc2c(c1)OCO2` (centres unmarked) [MDMA, reference compound], the EC50 in data set [3] (5-HT2A agonist selectivity (pEC50), agonist mode, CHO cells, calcium response) was greater than 50100 nM; in data set [3] (5-HT2A antagonist selectivity (represented as pEC50), antagonist mode, versus serotonin EC80), greater than 50100 nM. This compound also showed a free fraction (fraction unbound) at 5 h, 0.5 µM in data set [2] greater than 0.5.
